Results as given in the supplement of paper PMC10307832.

Tests used:
Assay in all cases: relative viability (nuclei count vs DMSO), 5 days (fraction); higher = more cells survive
Dactolisib + Trametinib = compound: Cn1c(=O)n(-c2ccc(C(C)(C)C#N)cc2)c2c3cc(-c4cnc5ccccc5c4)ccc3ncc21 [Dactolisib] + CC(=O)Nc1cccc(-n2c(=O)n(C3CC3)c(=O)c3c(Nc4ccc(I)cc4F)n(C)c(=O)c(C)c32)c1 [Trametinib] (partner 0.02 µM)
In short: (§1)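 One day after seeding in 1536-well plates, lung cancer cell lines were dosed by pin tool. Dosing was either single-drug or a fixed anchor-drug dose plus five library-drug doses (not always all listed) in √10 steps. After 5 days, nuclei were stained in one fix-and-stain step and counted on 4× images, and relative viability is the nuclei count of treated wells over that of vehicle wells, given as the median of duplicate plates.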

Dactolisib + AZD7762 = compound: Cn1c(=O)n(-c2ccc(C(C)(C)C#N)cc2)c2c3cc(-c4cnc5ccccc5c4)ccc3ncc21 [Dactolisib] + NC(=O)Nc1cc(-c2cccc(F)c2)sc1C(=O)N[C@H]1CCCNC1 [AZD7762] (partner 0.2 µM)
In short: as §1

AZ505 + Decitabine = compound: C1CCC(CC1)N(CCNCCC2=C3C(=C(C=C2)O)NC(=O)CO3)C(=O)CCNCCC4=CC(=C(C=C4)Cl)Cl [AZ505] + Nc1ncn([C@H]2C[C@H](O)[C@@H](CO)O2)c(=O)n1 [Decitabine] (partner 2 µM)
In short: as §1

AZ505 + Pictilisib = compound: C1CCC(CC1)N(CCNCCC2=C3C(=C(C=C2)O)NC(=O)CO3)C(=O)CCNCCC4=CC(=C(C=C4)Cl)Cl [AZ505] + CS(=O)(=O)N1CCN(Cc2cc3nc(-c4cccc5[nH]ncc45)nc(N4CCOCC4)c3s2)CC1 [Pictilisib] (partner 1 µM)
In short: as §1

Cell Line	relative viability (Dactolisib + Trametinib; first compound 0.002 µM)	relative viability (Dactolisib + Trametinib; first compound 0.006325 µM)	relative viability (Dactolisib + Trametinib; first compound 0.02 µM)	relative viability (Dactolisib + Trametinib; first compound 0.06325 µM)	relative viability (Dactolisib + Trametinib; first compound 0.2 µM)	relative viability (Dactolisib + AZD7762; first compound 0.002 µM)	relative viability (Dactolisib + AZD7762; first compound 0.006325 µM)	relative viability (Dactolisib + AZD7762; first compound 0.02 µM)	relative viability (Dactolisib + AZD7762; first compound 0.06325 µM)	relative viability (Dactolisib + AZD7762; first compound 0.2 µM)	relative viability (AZ505 + Decitabine; first compound 0.08 µM)	relative viability (AZ505 + Decitabine; first compound 0.253 µM)	relative viability (AZ505 + Decitabine; first compound 0.8 µM)	relative viability (AZ505 + Decitabine; first compound 2.53 µM)	relative viability (AZ505 + Decitabine; first compound 8 µM)	relative viability (AZ505 + Pictilisib; first compound 0.08 µM)	relative viability (AZ505 + Pictilisib; first compound 0.253 µM)	relative viability (AZ505 + Pictilisib; first compound 0.8 µM)	relative viability (AZ505 + Pictilisib; first compound 2.53 µM)	relative viability (AZ505 + Pictilisib; first compound 8 µM)
HCC-366	0.367	0.299	0.238	0.107	0.101	0.198	0.27	0.238	0.203	0.0362	0.342	0.344	0.316	0.316	0.341	0.136	0.186	0.123	0.128	0.18
HCC-827	0.582	0.563	0.477	0.313	0.269	0.226	0.279	0.176	0.184	0.231	0.325	0.313	0.324	0.37	0.351	0.944	0.963	1.1	0.999	0.953
HOP-62	0.429	0.349	0.369	0.23	0.195	0.513	0.403	0.657	0.261	0.198	0.21	0.221	0.259	0.205	0.204	0.557	0.678	0.829	0.407	0.647
IA-LM																	0.419	0.292	0.415	0.432
LC-2-ad	0.838	0.883	0.99	0.969	0.863	0.812	0.816	0.86	0.71	0.593	0.797	0.835	0.776	0.776	0.841	0.427	0.422	0.465	0.515	0.508
LCLC-97TM1	0.2	0.187	0.167	0.135	0.104	0.197	0.325	0.291	0.18	0.135	0.195	0.253	0.244		0.228	0.233	0.171	0.273	0.144	0.15
NCI-H520	0.61	0.585	0.354	0.147	0.102						0.458	0.583	0.465	0.519	0.601	0.264	0.273	0.284	0.272	0.259
NCI-H522	0.69	0.678	0.921	0.504	0.512	0.83	0.858	0.979	0.695	0.626	0.602	0.689	0.657	0.599	0.634					
NCI-H661	0.552	0.483	0.486	0.336	0.337						0.54	0.575	0.522	0.575	0.582		0.357	0.392	0.563	0.45
NCI-H1299																0.576	0.672	0.703	0.546	0.722
NCI-H1563																0.612	0.62	0.695	0.595	0.609
NCI-H1648	0.467	0.434	0.647	0.387	0.24	0.934	0.762	0.629	0.603	0.555		0.508	0.538	0.615	0.522					
NCI-H1650	0.63	0.614	0.503	0.339	0.22						0.367	0.405	0.502	0.368	0.427	0.488	0.594	0.586	0.492	0.502
NCI-H1703							0.139	0.127	0.124	0.115						0.242	0.235	0.231	0.256	0.25
NCI-H2009	0.276	0.272	0.213	0.154	0.126						0.451	0.397	0.361	0.362	0.365	0.633	0.703	0.688	0.486	0.696
NCI-H2023	0.582	0.461	0.304	0.103	0.0921						0.196	0.242	0.228	0.255	0.26	0.249	0.17	0.197	0.264	0.223
NCI-H2228	0.688	0.4	0.383	0.218	0.144											0.317	0.247	0.536	0.332	0.484
NCI-H2342	0.825	0.72	0.811	0.538	0.54	0.511	0.49	0.444	0.471	0.413	0.792	0.759	0.728	0.734	0.841					
SK-LU-1	0.476	0.657	0.392	0.34	0.283						0.518	0.568	0.565	0.406	0.604	0.333	0.419	0.332	0.323	0.435
SK-MES-1	0.581	0.528	0.467	0.355	0.263						0.369	0.409	0.392	0.412	0.439	0.377	0.394	0.388	0.38	0.411
SW 900	0.923	0.718	0.746	0.516	0.318	0.607	0.526	0.596	0.435	0.224	0.537	0.545	0.419	0.462	0.489					
SW 1573	0.529	0.438	0.482	0.144	0.163						0.517	0.63	0.569	0.476	0.501	0.456	0.514	0.422	0.467	0.571
